system: not given; experiment: not given; conditions: not given

| melting point | Compound |
| --- | --- |
| 127.9 to 129.2 °C | COC(=O)c1nc(-c2cc(F)c(C(F)F)cc2F)nc(N)c1OC [Compound 193] |

system: Key Broadleaf Weed and Crop Species; experiment: Post-emergent Test II herbicidal activity (Table 5); assay type: in vivo; conditions: post-emergence, 336 h; ABUTH: velvetleaf (Abutilon theophrasti); 70 g ai/ha; post-emergent; 14 days after application; read-out: Visual Growth Reduction (%) 14 Days After Application ABUTH
Outline: (§1)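 Visual injury ratings (0 = no injury, 100 = complete kill) were taken 14 d after treatment, relative to untreated plants. Seedlings at the first–second true leaf stage received overhead spray at 187 L/ha; the highest rate was serially diluted to ½×, ¼×, ⅛× and 1/16×.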

| Compound | pest or weed control at 70 g/ha |
| --- | --- |
| COC(=O)c1nc(-c2cc(F)c(C(F)F)cc2F)nc(N)c1OC [Compound 193] | 60 to 74% |

same assay, conditions: post-emergence, 336 h; ABUTH: velvetleaf (Abutilon theophrasti); 140 g ai/ha; post-emergent; 14 days after application; read-out: Visual Growth Reduction (%) 14 Days After Application ABUTH

| Compound | pest or weed control at 140 g/ha |
| --- | --- |
| COC(=O)c1nc(-c2cc(F)c(C(F)F)cc2F)nc(N)c1OC [Compound 193] | 75 to 84% |

same assay, conditions: post-emergence, 336 h; AMARE: redroot pigweed (Amaranthus retroflexus); 70 g ai/ha; post-emergent; 14 days after application; read-out: Visual Growth Reduction (%) 14 Days After Application AMARE

| Compound | pest or weed control at 70 g/ha |
| --- | --- |
| COC(=O)c1nc(-c2cc(F)c(C(F)F)cc2F)nc(N)c1OC [Compound 193] | 75 to 84% |

same assay, conditions: post-emergence, 336 h; AMARE: redroot pigweed (Amaranthus retroflexus); 140 g ai/ha; post-emergent; 14 days after application; read-out: Visual Growth Reduction (%) 14 Days After Application AMARE

| Compound | pest or weed control at 140 g/ha |
| --- | --- |
| COC(=O)c1nc(-c2cc(F)c(C(F)F)cc2F)nc(N)c1OC [Compound 193] | 95 to 100% |

same assay, conditions: post-emergence, 336 h; BRSNN: oilseed-rape, canola (Brassica napus); 70 g ai/ha; post-emergent; 14 days after application; read-out: Visual Growth Reduction (%) 14 Days After Application BRSNN

| Compound | pest or weed control at 70 g/ha |
| --- | --- |
| COC(=O)c1nc(-c2cc(F)c(C(F)F)cc2F)nc(N)c1OC [Compound 193] | 60 to 74% |

same assay, conditions: post-emergence, 336 h; BRSNN: oilseed-rape, canola (Brassica napus); 140 g ai/ha; post-emergent; 14 days after application; read-out: Visual Growth Reduction (%) 14 Days After Application BRSNN

| Compound | pest or weed control at 140 g/ha |
| --- | --- |
| COC(=O)c1nc(-c2cc(F)c(C(F)F)cc2F)nc(N)c1OC [Compound 193] | 60 to 74% |

same assay, conditions: post-emergence, 336 h; CHEAL: lambsquarters (Chenopodium album); 70 g ai/ha; post-emergent; 14 days after application; read-out: Visual Growth Reduction (%) 14 Days After Application CHEAL

| Compound | pest or weed control at 70 g/ha |
| --- | --- |
| COC(=O)c1nc(-c2cc(F)c(C(F)F)cc2F)nc(N)c1OC [Compound 193] | 85 to 94% |

same assay, conditions: post-emergence, 336 h; CHEAL: lambsquarters (Chenopodium album); 140 g ai/ha; post-emergent; 14 days after application; read-out: Visual Growth Reduction (%) 14 Days After Application CHEAL

| Compound | pest or weed control at 140 g/ha |
| --- | --- |
| COC(=O)c1nc(-c2cc(F)c(C(F)F)cc2F)nc(N)c1OC [Compound 193] | 95 to 100% |

same assay, conditions: post-emergence, 336 h; EPHHL: wild poinsettia (Euphorbia heterophylla); 70 g ai/ha; post-emergent; 14 days after application; read-out: Visual Growth Reduction (%) 14 Days After Application EPHHL

| Compound | pest or weed control at 70 g/ha |
| --- | --- |
| COC(=O)c1nc(-c2cc(F)c(C(F)F)cc2F)nc(N)c1OC [Compound 193] | 85 to 94% |

same assay, conditions: post-emergence, 336 h; EPHHL: wild poinsettia (Euphorbia heterophylla); 140 g ai/ha; post-emergent; 14 days after application; read-out: Visual Growth Reduction (%) 14 Days After Application EPHHL

| Compound | pest or weed control at 140 g/ha |
| --- | --- |
| COC(=O)c1nc(-c2cc(F)c(C(F)F)cc2F)nc(N)c1OC [Compound 193] | 95 to 100% |

same assay, conditions: post-emergence, 336 h; HELAN: sunflower (Helianthus annuus); 70 g ai/ha; post-emergent; 14 days after application; read-out: Visual Growth Reduction (%) 14 Days After Application HELAN

| Compound | pest or weed control at 70 g/ha |
| --- | --- |
| COC(=O)c1nc(-c2cc(F)c(C(F)F)cc2F)nc(N)c1OC [Compound 193] | 60 to 74% |

same assay, conditions: post-emergence, 336 h; HELAN: sunflower (Helianthus annuus); 140 g ai/ha; post-emergent; 14 days after application; read-out: Visual Growth Reduction (%) 14 Days After Application HELAN

| Compound | pest or weed control at 140 g/ha |
| --- | --- |
| COC(=O)c1nc(-c2cc(F)c(C(F)F)cc2F)nc(N)c1OC [Compound 193] | 75 to 84% |

same assay, conditions: post-emergence, 336 h; VIOTR: wild pansy (Viola tricolor); 70 g ai/ha; post-emergent; 14 days after application; read-out: Visual Growth Reduction (%) 14 Days After Application VIOTR

| Compound | pest or weed control at 70 g/ha |
| --- | --- |
| COC(=O)c1nc(-c2cc(F)c(C(F)F)cc2F)nc(N)c1OC [Compound 193] | 0 to 29% |

same assay, conditions: post-emergence, 336 h; VIOTR: wild pansy (Viola tricolor); 140 g ai/ha; post-emergent; 14 days after application; read-out: Visual Growth Reduction (%) 14 Days After Application VIOTR

| Compound | pest or weed control at 140 g/ha |
| --- | --- |
| COC(=O)c1nc(-c2cc(F)c(C(F)F)cc2F)nc(N)c1OC [Compound 193] | 30 to 44% |

system: Key Grass and Sedge Weeds as well as Grass Crops; experiment: Post-emergent Test II herbicidal activity (Table 6); assay type: in vivo; conditions: post-emergence, 336 h, CYPES: yellow nutsedge (Cyperus esculentus), application rate 70 g ai/ha, read-out: Visual Growth Reduction (%) 14 Days After Application, CYPES
Outline: as §1

| Compound | pest or weed control at 70 g/ha |
| --- | --- |
| COC(=O)c1nc(-c2cc(F)c(C(F)F)cc2F)nc(N)c1OC [Compound 193] | 30 to 44% |

same assay, conditions: post-emergence, 336 h, CYPES: yellow nutsedge (Cyperus esculentus), application rate 140 g ai/ha, read-out: Visual Growth Reduction (%) 14 Days After Application, CYPES

| Compound | pest or weed control at 140 g/ha |
| --- | --- |
| COC(=O)c1nc(-c2cc(F)c(C(F)F)cc2F)nc(N)c1OC [Compound 193] | 45 to 59% |

same assay, conditions: post-emergence, 336 h, DIGSA: crabgrass (Digitaria sanguinalis), application rate 70 g ai/ha, read-out: Visual Growth Reduction (%) 14 Days After Application, DIGSA

| Compound | pest or weed control at 70 g/ha |
| --- | --- |
| COC(=O)c1nc(-c2cc(F)c(C(F)F)cc2F)nc(N)c1OC [Compound 193] | 0 to 29% |

same assay, conditions: post-emergence, 336 h, DIGSA: crabgrass (Digitaria sanguinalis), application rate 140 g ai/ha, read-out: Visual Growth Reduction (%) 14 Days After Application, DIGSA

| Compound | pest or weed control at 140 g/ha |
| --- | --- |
| COC(=O)c1nc(-c2cc(F)c(C(F)F)cc2F)nc(N)c1OC [Compound 193] | 0 to 29% |

same assay, conditions: post-emergence, 336 h, ECHCG: barnyardgrass (Echinochloa crus-galli), application rate 70 g ai/ha, read-out: Visual Growth Reduction (%) 14 Days After Application, ECHCG

| Compound | pest or weed control at 70 g/ha |
| --- | --- |
| COC(=O)c1nc(-c2cc(F)c(C(F)F)cc2F)nc(N)c1OC [Compound 193] | 0 to 29% |

same assay, conditions: post-emergence, 336 h, ECHCG: barnyardgrass (Echinochloa crus-galli), application rate 140 g ai/ha, read-out: Visual Growth Reduction (%) 14 Days After Application, ECHCG

| Compound | pest or weed control at 140 g/ha |
| --- | --- |
| COC(=O)c1nc(-c2cc(F)c(C(F)F)cc2F)nc(N)c1OC [Compound 193] | 0 to 29% |

same assay, conditions: post-emergence, 336 h, ORYSA: rice (Oryza sativa), application rate 70 g ai/ha, read-out: Visual Growth Reduction (%) 14 Days After Application, ORYSA

| Compound | pest or weed control at 70 g/ha |
| --- | --- |
| COC(=O)c1nc(-c2cc(F)c(C(F)F)cc2F)nc(N)c1OC [Compound 193] | 0 to 29% |

same assay, conditions: post-emergence, 336 h, ORYSA: rice (Oryza sativa), application rate 140 g ai/ha, read-out: Visual Growth Reduction (%) 14 Days After Application, ORYSA

| Compound | pest or weed control at 140 g/ha |
| --- | --- |
| COC(=O)c1nc(-c2cc(F)c(C(F)F)cc2F)nc(N)c1OC [Compound 193] | 0 to 29% |

same assay, conditions: post-emergence, 336 h, SETFA: giant foxtail (Setaria faberi), application rate 70 g ai/ha, read-out: Visual Growth Reduction (%) 14 Days After Application, SETFA

| Compound | pest or weed control at 70 g/ha |
| --- | --- |
| COC(=O)c1nc(-c2cc(F)c(C(F)F)cc2F)nc(N)c1OC [Compound 193] | 0 to 29% |

same assay, conditions: post-emergence, 336 h, SETFA: giant foxtail (Setaria faberi), application rate 140 g ai/ha, read-out: Visual Growth Reduction (%) 14 Days After Application, SETFA

| Compound | pest or weed control at 140 g/ha |
| --- | --- |
| COC(=O)c1nc(-c2cc(F)c(C(F)F)cc2F)nc(N)c1OC [Compound 193] | 45 to 59% |

same assay, conditions: post-emergence, 336 h, SORVU: grain sorghum (Sorghum vulgare), application rate 70 g ai/ha, read-out: Visual Growth Reduction (%) 14 Days After Application, SORVU

| Compound | pest or weed control at 70 g/ha |
| --- | --- |
| COC(=O)c1nc(-c2cc(F)c(C(F)F)cc2F)nc(N)c1OC [Compound 193] | 0 to 29% |

same assay, conditions: post-emergence, 336 h, SORVU: grain sorghum (Sorghum vulgare), application rate 140 g ai/ha, read-out: Visual Growth Reduction (%) 14 Days After Application, SORVU

| Compound | pest or weed control at 140 g/ha |
| --- | --- |
| COC(=O)c1nc(-c2cc(F)c(C(F)F)cc2F)nc(N)c1OC [Compound 193] | 45 to 59% |

same assay, conditions: post-emergence, 336 h, TRZSS (wheat, Triticum aestivum), application rate 70 g ai/ha, read-out: Visual Growth Reduction (%) 14 Days After Application, TRZSS

| Compound | pest or weed control at 70 g/ha |
| --- | --- |
| COC(=O)c1nc(-c2cc(F)c(C(F)F)cc2F)nc(N)c1OC [Compound 193] | 0 to 29% |

same assay, conditions: post-emergence, 336 h, TRZSS (wheat, Triticum aestivum), application rate 140 g ai/ha, read-out: Visual Growth Reduction (%) 14 Days After Application, TRZSS

| Compound | pest or weed control at 140 g/ha |
| --- | --- |
| COC(=O)c1nc(-c2cc(F)c(C(F)F)cc2F)nc(N)c1OC [Compound 193] | 30 to 44% |

same assay, conditions: post-emergence, 336 h, ZEAMX: maize, corn (Zea mays), application rate 70 g ai/ha, read-out: Visual Growth Reduction (%) 14 Days After Application, ZEAMX

| Compound | pest or weed control at 70 g/ha |
| --- | --- |
| COC(=O)c1nc(-c2cc(F)c(C(F)F)cc2F)nc(N)c1OC [Compound 193] | 0 to 29% |

same assay, conditions: post-emergence, 336 h, ZEAMX: maize, corn (Zea mays), application rate 140 g ai/ha, read-out: Visual Growth Reduction (%) 14 Days After Application, ZEAMX

| Compound | pest or weed control at 140 g/ha |
| --- | --- |
| COC(=O)c1nc(-c2cc(F)c(C(F)F)cc2F)nc(N)c1OC [Compound 193] | 0 to 29% |

Source: patent publication US9113629B2, “4-amino-6-(4-substituted-phenyl)-picolinates and 6-amino-2-(4-substituted-phenyl)-pyrimidine-4-carboxylates and their use as herbicides” (DOW AGROSCIENCES LLC, priority 2013, dated 2015)
